Experimental data as given in paper doi:10.1101/757047v1 (biorxiv, 2019).
Read-outs that look alike come from different tables or passages of the source.

What was measured:
STK10 [1] = molecular target: T1, STK10 (Homo sapiens, UniProt O94804); experiment: biochemical
[2] = molecular target: T2, full length GAK protein N-terminally fused with NanoLuc luciferase (Homo sapiens, UniProt O14976); experiment: cell-based; set-up: species or system HEK293T
T2 sequence (O14976 2-1311): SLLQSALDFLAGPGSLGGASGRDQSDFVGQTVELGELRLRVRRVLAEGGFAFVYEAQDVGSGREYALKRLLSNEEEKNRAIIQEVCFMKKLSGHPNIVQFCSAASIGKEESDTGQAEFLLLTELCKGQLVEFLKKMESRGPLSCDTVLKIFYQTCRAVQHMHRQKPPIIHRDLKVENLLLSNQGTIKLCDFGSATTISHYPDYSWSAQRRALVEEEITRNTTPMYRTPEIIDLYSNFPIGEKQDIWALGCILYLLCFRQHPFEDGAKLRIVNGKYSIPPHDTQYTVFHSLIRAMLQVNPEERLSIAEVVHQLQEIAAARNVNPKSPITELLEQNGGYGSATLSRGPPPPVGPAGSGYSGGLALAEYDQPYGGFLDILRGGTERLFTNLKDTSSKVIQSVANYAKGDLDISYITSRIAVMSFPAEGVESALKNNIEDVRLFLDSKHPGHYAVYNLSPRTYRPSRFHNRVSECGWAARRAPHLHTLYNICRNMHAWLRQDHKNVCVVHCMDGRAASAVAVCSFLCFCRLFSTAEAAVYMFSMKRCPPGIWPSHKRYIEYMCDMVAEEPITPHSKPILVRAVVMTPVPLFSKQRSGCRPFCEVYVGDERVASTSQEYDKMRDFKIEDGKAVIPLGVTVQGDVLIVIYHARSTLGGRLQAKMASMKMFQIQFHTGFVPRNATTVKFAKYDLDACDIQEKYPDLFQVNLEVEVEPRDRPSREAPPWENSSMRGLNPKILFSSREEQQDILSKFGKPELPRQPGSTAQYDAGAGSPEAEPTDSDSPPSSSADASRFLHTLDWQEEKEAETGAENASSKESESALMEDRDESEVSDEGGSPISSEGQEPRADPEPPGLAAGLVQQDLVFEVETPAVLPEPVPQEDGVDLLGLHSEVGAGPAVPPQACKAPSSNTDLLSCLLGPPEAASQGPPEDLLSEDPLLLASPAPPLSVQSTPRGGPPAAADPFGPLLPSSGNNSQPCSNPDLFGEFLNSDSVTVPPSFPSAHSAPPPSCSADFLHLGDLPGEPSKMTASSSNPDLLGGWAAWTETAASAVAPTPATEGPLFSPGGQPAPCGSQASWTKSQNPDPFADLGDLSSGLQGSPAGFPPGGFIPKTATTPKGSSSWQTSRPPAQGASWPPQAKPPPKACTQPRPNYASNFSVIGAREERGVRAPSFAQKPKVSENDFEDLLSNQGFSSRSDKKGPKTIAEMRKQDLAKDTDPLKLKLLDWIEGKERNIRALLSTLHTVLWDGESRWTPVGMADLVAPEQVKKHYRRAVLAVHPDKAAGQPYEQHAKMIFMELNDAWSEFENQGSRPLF

SLK [3] = molecular target: T3, SLK (Homo sapiens, UniProt Q9H2G2); experiment: biochemical
T3 sequence (Q9H2G2 34-292): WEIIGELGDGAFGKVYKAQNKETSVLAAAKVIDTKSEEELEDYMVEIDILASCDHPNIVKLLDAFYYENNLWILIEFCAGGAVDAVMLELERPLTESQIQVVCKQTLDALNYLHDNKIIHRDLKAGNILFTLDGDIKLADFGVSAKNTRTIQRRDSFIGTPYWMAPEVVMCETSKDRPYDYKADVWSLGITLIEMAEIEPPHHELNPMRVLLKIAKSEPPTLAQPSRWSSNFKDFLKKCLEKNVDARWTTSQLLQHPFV

STK10 [4] = molecular target: T1, STK10; experiment: TR-FRET binding displacement assay
GAK = molecular target: T4, GAK (Homo sapiens, UniProt O14976); experiment: TR-FRET binding displacement assay
T4 sequence (O14976 12-347 limits assumed): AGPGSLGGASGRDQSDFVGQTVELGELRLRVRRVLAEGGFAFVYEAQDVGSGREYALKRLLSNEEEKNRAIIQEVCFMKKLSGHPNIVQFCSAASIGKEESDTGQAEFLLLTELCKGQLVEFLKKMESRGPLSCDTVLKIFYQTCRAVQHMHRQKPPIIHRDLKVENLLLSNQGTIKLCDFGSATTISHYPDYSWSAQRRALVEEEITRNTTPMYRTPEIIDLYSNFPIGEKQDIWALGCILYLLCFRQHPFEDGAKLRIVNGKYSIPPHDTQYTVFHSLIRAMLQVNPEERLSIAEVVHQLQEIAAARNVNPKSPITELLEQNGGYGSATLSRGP

SLK [5] = molecular target: T3, SLK; experiment: TR-FRET binding displacement assay
[6] = molecular target: T2, full length GAK protein N-terminally fused with NanoLuc luciferase; experiment: nanoBRET cellular target engagement; format: cell-based
[7] = molecular target: T2, full length GAK protein N-terminally fused with NanoLuc luciferase; experiment: cell-based; set-up: species or system HEK293T; remark: listed apart in the source
[8] = HEK293T cells, tracer displacement, n=[…] mean
[9] = ATP site tracer displacement, 16-point dose response

T1 sequence (O94804 36-294 limits assumed): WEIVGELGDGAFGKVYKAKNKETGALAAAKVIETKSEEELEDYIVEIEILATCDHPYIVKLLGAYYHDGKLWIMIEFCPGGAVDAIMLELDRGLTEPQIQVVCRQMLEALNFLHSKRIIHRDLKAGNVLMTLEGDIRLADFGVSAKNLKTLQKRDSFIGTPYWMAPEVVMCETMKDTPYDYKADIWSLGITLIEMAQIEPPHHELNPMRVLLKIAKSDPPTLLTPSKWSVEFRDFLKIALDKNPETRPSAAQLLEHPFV

Compound	Ki (STK10 [4]) [µM]	Ki (SLK [5]) [µM]	IC50 [7] [µM]	further results
C#Cc1cccc(Nc2ncnc3cc4c(cc23)OCCO4)c1 [compound 74, 74]	–	–	–	Ki (STK10 [1]): 1.7 µM; IC50 [2]: 3.2 µM; Ki (SLK [3]): 3.6 µM
COc1cc(Nc2ccnc3ccc(I)cc23)cc(OC)c1OC [compound 11, 11]	24.3	5.8	–	Ki (GAK): 0.0038 µM; IC50 [6]: 0.11 µM
COc1cc(Nc2ncnc3ccc(C(F)(F)F)cc23)cc(OC)c1OC [compound 30, 30]	–	–	4.5	–
C#Cc1cccc(Nc2ccnc3cc(OCCOC)c(OCCOC)cc23)c1 [compound 1, erlotinib quinoline]	0.72	1.2	–	Ki (GAK): 0.1 µM; IC50 [6, 8]: 4.2 µM
COc1cc(Nc2ncnc3ccc(S(C)(=O)=O)cc23)cc(OC)c1OC [compound 38, 38]	–	–	> 5	–
C#Cc1cccc(Nc2ncnc3cc(OC)c(OC)cc23)c1 [compound 71, 71]	0.12	0.14	–	Ki (GAK): 0.001 µM
COc1cc(Nc2ccnc3ccc(Cl)cc23)cc(OC)c1OC [compound 10, 10]	1	11	–	Ki (GAK): 0.00068 µM; IC50 [6]: 0.21 µM
COc1ccc2ncnc(Nc3cc(OC)c(OC)c(OC)c3)c2c1 [compound 39, 39]	–	–	3.4	–
C#Cc1cccc(Nc2c(C#N)cnc3cc(OC)c(OC)cc23)c1 [compound 82, 82]	–	–	–	Ki (GAK; [9]): 0.00032 µM; IC50 ([6]; HEK293T cells, tracer displacement): 0.04 µM
COc1cc2ncnc(Nc3ccc(F)c(Cl)c3)c2cc1NC(=O)/C=C/CN1CCCCC1 [Dacomitinib]	0.59	1.1	–	Ki (GAK): 0.007 µM; IC50 [6]: 0.049 µM
CCOc1cc2ncc(C#N)c(Nc3ccc(OCc4ccccn4)c(Cl)c3)c2cc1NC(=O)/C=C/CN(C)C [Neratinib]	–	–	–	Ki (GAK): 0.29 µM; IC50 [6]: 2.3 µM
COc1cc(Nc2ccnc3cc(Br)ccc23)cc(OC)c1OC [compound 18, 18]	0.38	2.7	–	Ki (GAK): 0.0049 µM; IC50 [6]: 0.27 µM
COc1cc(Nc2ccnc3ccc(F)cc23)cc(OC)c1OC [compound 8, 8]	45.9	5.1	–	–
COc1cc(Nc2ccnc3ccccc23)cc(OC)c1OC [compound 7, 7]	27.8	> 55	–	Ki (GAK; [9]): 0.04 µM; IC50 [6]: 0.73 µM
COc1cc(Nc2ncnc3cc(I)ccc23)cc(OC)c1OC [compound 34, 34]	–	–	2.4	–
COc1cc(Nc2ccnc3ccc(C(F)(F)F)cc23)cc(OC)c1OC [compound 12, 12]	4.6	33	–	–
COc1cc(Nc2ncnc3ccc(I)cc23)cc(OC)c1OC [compound 29, 29]	–	–	0.89	–
CCOc1cc2ncc(C#N)c(Nc3ccc(F)c(Cl)c3)c2cc1NC(=O)/C=C/CN(C)C [Pelitinib]	–	0.28	–	IC50 [6]: 0.012 µM
COc1cc(Nc2ccnc3cc(C#N)ccc23)cc(OC)c1OC [compound 21, 21]	0.13	1.1	–	Ki (GAK; [9]): 0.0027 µM; IC50 [6]: 0.35 µM
COc1ccc2nccc(Nc3cc(OC)c(OC)c(OC)c3)c2c1 [compound 14, 14]	12	> 55	–	Ki (GAK; [9]): 0.013 µM; IC50 [6]: 0.36 µM
COc1cc(Nc2ccnc3cc(F)c(F)cc23)cc(OC)c1OC [compound 9, 6,7-difluoro-N-(3,4,5-trimethoxyphenyl)quinolin-4-amine]	2.7	26	–	Ki (GAK): 0.0069 µM; IC50 [6]: 0.14 µM
COc1cc(Nc2ncnc3ccc(Cl)cc23)cc(OC)c1OC [compound 27, 27]	–	–	2.4	–
COc1cc(Nc2ncnc3ccc(Br)cc23)cc(OC)c1OC [compound 28, 28]	–	–	1.8	–

Compound	Ki (STK10 [4]) [µM]	Ki (SLK [5]) [µM]	IC50 [7] [µM]	further results
COc1cc(Nc2ccnc3cc(F)ccc23)cc(OC)c1OC [compound 16, 16]	1.6	17	–	–
COc1cc2nccc(Nc3cc(OC)c(OC)c(OC)c3)c2cc1OC [compound 3, 3]	1.1	7.1	–	IC50 [6]: 0.026 µM
COc1cc(Nc2ccnc3ccc(C#N)cc23)cc(OC)c1OC [compound 13, 13]	1.7	19	–	Ki (GAK; [9]): 0.0015 µM; IC50 [6]: 0.36 µM
C#Cc1cccc(Nc2ncnc3cc(OC)c(OC)cc23)c1 [compound 71]	–	–	–	IC50 [2]: 0.079 µM
COc1cc(Nc2ccnc3cc(Cl)ccc23)cc(OC)c1OC [compound 17, 17]	0.21	2.1	–	Ki (GAK): 0.0013 µM; IC50 [6]: 0.25 µM
COc1cc(Nc2ccnc3ccc(S(C)(=O)=O)cc23)cc(OC)c1OC [compound 15, 15]	2.4	23	–	–
COc1cc(Nc2ncnc3ccc(F)cc23)cc(OC)c1OC [compound 25, 25]	–	–	3.6	–
COc1cc(Nc2ncnc3cc(Cl)ccc23)cc(OC)c1OC [compound 32, 32]	–	–	3.2	–
C#Cc1cccc(Nc2ncnc3ccc(S(C)(=O)=O)cc23)c1 [compound 69, N-(3-ethynylphenyl)-6-(methylsulfonyl)quinazolin-4-amine]	–	–	–	Ki (GAK): 0.42 µM; Ki (STK10 [1]): 1.3 µM; IC50 [2]: > 5 µM; Ki (SLK [3]): 1.3 µM
COc1cc(Nc2ccnc3cc(C(F)(F)F)ccc23)cc(OC)c1OC [compound 20, 20]	0.37	3.2	–	Ki (GAK; [9]): 0.0062 µM; IC50 [6, 8]: 0.52 µM
COc1cc2ncnc(Nc3ccc(F)c(Cl)c3)c2cc1OCCCN1CCOCC1 [Gefitinib]	0.34	–	–	–
C#Cc1cccc(Nc2ncnc3cc(Cl)ccc23)c1 [compound 63, 63]	–	–	–	Ki (STK10 [1]): 0.44 µM; IC50 [2]: > 5 µM; Ki (SLK [3]): 0.36 µM
COc1cc(Nc2ncnc3cc(F)ccc23)cc(OC)c1OC [compound 31, 31]	–	–	> 5	–
COc1cc(Nc2ncnc3ccc(C#N)cc23)cc(OC)c1OC [compound 37, 37]	–	–	> 5	–
COc1cc(Nc2ccnc3ccc(Br)cc23)cc(OC)c1OC [compound 2, SGC-GAK-1]	4.6	34	–	–
COc1cc(Nc2ncnc3cc(F)c(F)cc23)cc(OC)c1OC [compound 26, 26]	–	–	> 5	–
COCCOc1cc2ncnc(Nc3cc(OC)c(OC)c(OC)c3)c2cc1OCCOC [compound 42, 42]	–	–	3	–
COc1cc(Nc2ncnc3cc(Br)ccc23)cc(OC)c1OC [compound 33, 33]	–	–	4.2	–
COc1cc(Nc2ncnc3ccccc23)cc(OC)c1OC [compound 23, 23]	–	–	4.6	–
COc1cc(Nc2ncnc3ccc(C)cc23)cc(OC)c1OC [compound 24, 24]	–	–	2.1	–
COc1cc(Nc2ncnc3cc(C(F)(F)F)ccc23)cc(OC)c1OC [compound 35, 35]	–	–	> 5	–
COc1cc(Nc2ncnc3cc(C#N)ccc23)cc(OC)c1OC [compound 36, 4-((3,4,5-trimethoxyphenyl)amino)quinazoline-7-carbonitrile]	–	–	> 5	Ki (GAK): 0.21 µM
COc1ccc2c(Nc3cc(OC)c(OC)c(OC)c3)ncnc2c1 [compound 41, 41]	–	–	1.6	–
